Experimental data: patent publication US20250127774A1, “COMPOUNDS FOR LABELLING NUCLEIC ACID AND USES THEREOF” (THE ROYAL INSTITUTION FOR THE ADVANCEMENT OF …, priority 2022, published 2025)

Legend:
[1] = Kinetic measurements with the VdU nucleoside (non-templated IEDDA reaction); details: 50 mM aq. NaOAc buffer pH 5.2 (27% DMSO)
Experimental: A) Fluorescence increase versus time upon mixing PINK with VdU. […] B) Normalized increase of fluorescence. C) Plot of the observed rates k′ versus PINK concentrations. The slope yields the rate constant k.
PINK (4) undergoes a highly fluorogenic and regioselective IEDDA reaction with VdU (5) to give “PINK-VdU-ox” (6) as a single isomer in a 76% isolated yield after 7d at 60° C. (Scheme 1). The slow rate of this non-templated reaction (Kapp=0.01 M^−1 s^−1, FIG. 5) is due to the combination of an unstrained terminal alkene and unactivated tetrazine.^[49] Over the course of the reaction, a ˜100-fold increase in fluorescence was observed (FIG. 3, c). […]
Kinetic Measurements with the VdU Nucleoside. Second order reaction rates between PINK and VdU were determined under pseudo first order conditions with a large excess of the dienophile over the tetrazine. […] Measurements were performed on a SpectraMax M5 plate reader (Molecular Devices, Sunnyvale, CA, USA) in 384 well plates (Greiner bio-one, cat-#871906; 50 μL per well; covered with 20 μL spectroscopic grade silicon oil to avoid evaporation). […] Samples were measured over 18 h in intervals of 10 min. […] Reactions rates were calculated using pseudo first order approximations fitting the measurements to mono exponential equations. The reported reaction rate is an arithmetic mean determined from three independent experiments.

[2] = tested on: vinyl-modified RNA in Hela cells; test: Metabolic RNA labeling; assay type: cell-based; details: VU 2.5 mM 24 h, PINK 100 μM 5 h; diminished by RNase A/T1
Experimental: The labeling approach was extended to vinyl-modified RNA. Hela cells were seeded in ibidi® 8-well plates (5.000 cells per well) and allowed to settle overnight. Cells were then incubated with 5-vinyl uridine (VU, 2.5 mM) for 24 h. After 19 h, PINK (100 μM final concentration) was added for 5 h. […]. Cells were fixed and optionally treated with RNase A/T1 mix (100 μg/mL RNase A; 250 U/mL RNase T1). Total cellular DNA was counterstained with Hoechst 33342 (5 μg/mL). Images were acquired on confocal microscopes under 20× (a) or 63× (b) magnification (FIG. 13).
Metabolic RNA Labeling. Hela cells were seeded in μ-slide 8-well chambers (ibidi®), cat-#: 80826) at a density of 2.0×10^4 cells per mL (5.000 cells per well) and allowed to settle overnight. Cells were aspirated and 5-vinyl uridine (VU, 2.5 mM, 0.1% DMSO) was added. Cells were incubated for 19 h, at which point PINK (100 μM; 0.2% DMSO final concentrations) was added. After additional 5 h, cells were aspirated, washed with PBS, and fixed with 3.7% PFA in PBS for 15 min. Cells were quenched with 50 mM glycine/NH4Cl for 5 min, washed with PBS, and permeabilized twice with 0.2% Triton X-100 in PBS for 5 min each followed by washing with PBS, twice 100 mM NaOAc buffer (pH 5.2), 10% DMSO in PBS, and PBS for 5 min each. […]

Jurkat cells = test: Cell counting assay (Trypan Blue); assay type: cell-based, human; details: 10 μM nucleoside, 1 μM PINK
Experimental: (§1) To confirm the cytotoxicity results obtained from the resazurin assays, a cell counting assay was conducted using Trypan Blue. It is an azo dye allows to discriminate between viable cells and dead cells, since dead cells will take in the dye, while viable cells will remain white. 28 From the resazurin assays, and after some optimization based on cell sensitivity to the vinyl-nucleosides, it was determined that […] and 5 μM of vinyl-nucleosides alone and in combination with 1 μM of PINK were two interesting concentrations to explore in Jurkat, MV4-11, and MOLM-13 cells. Cells were incubated with 5 μM or 10 μM of each nucleoside overnight (Day 0), and 1 μM of PINK was added for the combinations and PINK alone 24h post nucleoside incubation (Day 1). The cells were counted every 24h.
(§2) Cell Counting Assay. Jurkat, MV4-11 and MOLM-13 cells were seeded in 12-well plates at a density of 500 000 cells/mL, 175 000 cells/mL and 375 000 cells/mL, respectively, in duplicates. The cells were incubated overnight in fresh media containing 10 μM (Jurkat) or 5 μM (MV4-11 and MOLM-13) of each nucleoside (˜0.01% DMSO). 24h post nucleoside addition, 1 μM of PINK (˜0.01% DMSO) were added to the respective wells and incubated for 24 h. The cells were counted using a cell counter (BIO RAD TC20) to determine the percentage of viable cells and the cell concentration. The cells were counted every 24h using Trypan Blue in a 1:1 ratio.

MOLM-13 cells = test: Cell counting assay (Trypan Blue); assay type: cell-based, human; details: MOLM-13, 5 μM nucleoside, 1 μM PINK
Experimental: as §1, §2

MV4-11 cells = test: Cell counting assay (Trypan Blue); assay type: cell-based, human; details: MV4-11, 5 μM nucleoside, 1 μM PINK
Experimental: as §1, §2

Compound | rate of non-templated reaction (Kapp) ([1]; 100 μM PINK, 1-5 mM VdU) | stability of PINK under control conditions (0 mM VdU) ([1]; 18 h) | fluorescent signal of live-cell metabolic RNA labeling [2] | cell concentration (cell growth) (Jurkat cells) | cell concentration (cell growth) (MOLM-13 cells) | cell concentration (cell growth) (MV4-11 cells)
Cc1nnc(-c2ccc3cc4ccc(N(C)C)cc4nc3c2)nn1 [PINK] | 0.01 M⁻¹ s⁻¹ | full stability | strong fluorescent signal |  |  | 
C=Cc1cn([C@H]2C[C@H](O)[C@@H](CO)O2)c(=O)[nH]c1=O [VdU, 5-vinyl-2′-deoxyuridine] |  |  |  | more impact on cell growth than expected from the resazurin assay | seem to inhibit cell growth | significantly inhibited cell growth
